Columns and labels:
serotonin ulcer = assay: Inhibitory activity on serotonin ulcer; assay type: in vivo, SD-strain male rats; details: 30 min before serotonin 20 mg/kg s.c., rats
Method: Seven week-old SD-strain male rats (body weight 200 to 220 g) were fasted for 24 hours but water was provided freely, and then used in the following experiment. Each of the test compounds suspended in 0.5% CMC was administered to the rats either orally or intraperitoneally, and 30 minutes later, serotonin (serotonin creatinine sulfate) was subcutaneously administered to the rats in a dose of 20 mg/kg. Four hours later, the animals were sacrificed. The abdomen was cut open, and the stomach was taken out from each animal. 12 ml of 1% formalin was injected into the stomach to inflate it, and the stomach was further dipped for about 10 minutes in 1% formalin for fixation. Then, the stomach was cut open on the side of the lesser curvature, and spread on a glass plate. The area of ulcers generated in the glandular stomach was measured by using a solid microscope. The sum of the area of ulcer for each animal was used as the ulcer index. The ulcer inhibiting ratio of the test compound was calculated in accordance with the following equation. [formula] The control group was given 0.5% CMC and serotonin alone.

plasmin = biological target: T1, plasmin (Homo sapiens, UniProt P00747); assay: Antiplasmin activity (clot lysis time, fibrinogen/urokinase/thrombin); assay type: biochemical
T1 construct: fibrin clot lysis, native
Method: Human fibrinogen was dissolved in a phosphate-buffered physiological saline (PBS) at a pH of 7.4 to prepare a 0.2% solution. Urokinase and thrombin were dissolved similarly in PBS to prepare a solution containing 120 units of urokinase and 50 units of thrombin per ml. […] Then, 0.1 ml of the urokinase-thrombin mixed solution was added, and a microchronometer was started. One minute after the starting of the microchronometer, a glass ball having a diameter of 8 mm was put on the coagulated surface, and the incubation was continued. The time which elapsed from the dissolution of the coagulated mass until the glass ball dropped onto the bottom of the test tube was measured. As a control, PBS alone was added.

thrombin = assay: Antithrombin activity (recalcification time of plasma); details: rabbit plasma
Method: Citrated blood (3.5% sodium citrate: blood=1:9) was drawn from a white native male rabbit (3 to 3.5 kg in body weight). The blood was centrifuged at 3000 rpm to prepare plasma which was used in the following experiment. One milliliter of the plasma was put in a small test tube having an inside diameter of 12 mm, and incubated at 37° C. Then, 0.1 ml of each of the test compounds, dissolved in PBS, was added, and the mixture was further incubated at 37° C. for 2 minutes. Then, 0.2 ml of 0.02 M CaCl2 was added, and a microchronometer was started. While occasionally shaking the test tube, the time which elapsed until the plasma coagulated was measured. As a control, PBS was used.

gastric secretion = assay: Inhibitory activity on gastric secretion (pylorus ligation); assay type: in vivo, male rats; details: for Amount of gastric juice: 4 hours after pylorus ligation, control 6.8 ± 0.6, in ml (unit assumed); for Acidity: control 109.1 ± 1.7
Method: Seven week-old DS-strain male rats (body weight 200 to 220 g) were fasted for 24 hours but water was provided freely, and then used in the following experiment.
The rats were anesthetized with ether. The abdomen was cut open along the median line to expose the pylorus. Then, the pylorus was ligated. After ligation, each of the test compounds dissolved in physiological saline was intraperitoneally administered to the animals. The abdomen was sutured, and after confirming that the animals recovered from ether anesthesia, they were kept in a wire cage while being deprived of food and water. Four hours later, the animals were killed by using ether. The abdomen was again cut open, and the stomach was removed. The gastric juice was collected, and its volume and acidity was measured. The acidity of the gastric juice was determined by titrating with 0.05 N sodium hydroxide using phenolphthalein as an indicator, and calculating the amount of sodium hydroxide required to neutralize the gastric juice which is estimated as the acidity of the gastric juice.
The control group was given physiological saline alone.
For the method of studying the inhibitory activity on the gastiic secretion, reference may be made to H. Shay, S. A. Komoroe, S. S. Fels, M. Meraze, M. Gruestein and H. Siplet: Gastroent., 5, 43 (1945), and M. L. Anson: J. Gen, Physiol., 21, 79 (1938).

[1] = 10^-3 M, first series, control 391.7 ± 16.1
[2] = 10^-4 M, first series, control 391.7 ± 16.1
[3] = 5 × 10^-3 M, second series, control 103.3 ± 7.6
[4] = 5 × 10^-4 M, second series, control 103.3 ± 7.6

T1 sequence (P00747 97-810): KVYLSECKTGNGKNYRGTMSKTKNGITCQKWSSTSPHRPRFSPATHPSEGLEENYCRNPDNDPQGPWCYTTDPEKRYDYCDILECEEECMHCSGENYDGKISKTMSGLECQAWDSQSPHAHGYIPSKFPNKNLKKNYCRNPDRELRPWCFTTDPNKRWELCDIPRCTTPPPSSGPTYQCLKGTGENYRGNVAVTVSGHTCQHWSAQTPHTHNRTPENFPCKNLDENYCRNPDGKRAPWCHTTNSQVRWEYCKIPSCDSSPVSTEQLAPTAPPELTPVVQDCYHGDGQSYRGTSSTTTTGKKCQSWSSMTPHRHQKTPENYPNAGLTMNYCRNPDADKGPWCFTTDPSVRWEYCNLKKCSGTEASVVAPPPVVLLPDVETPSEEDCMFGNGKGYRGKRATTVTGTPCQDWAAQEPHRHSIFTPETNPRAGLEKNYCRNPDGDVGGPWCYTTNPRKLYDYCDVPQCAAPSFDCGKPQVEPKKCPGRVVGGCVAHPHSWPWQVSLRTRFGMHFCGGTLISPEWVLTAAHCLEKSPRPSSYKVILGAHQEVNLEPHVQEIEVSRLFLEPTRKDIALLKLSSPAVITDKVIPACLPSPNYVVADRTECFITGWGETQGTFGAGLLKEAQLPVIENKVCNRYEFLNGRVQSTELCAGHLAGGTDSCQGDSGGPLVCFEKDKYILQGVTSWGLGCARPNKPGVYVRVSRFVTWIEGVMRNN

Q: Which Ulcer inhibiting ratio (serotonin ulcer; 100 mg/kg intraperitoneal) does the source give for `Cl.NC[C@H]1CC[C@H](C(O)c2ccc(CCC(=O)O)cc2)CC1` (relative stereo) [trans (307) hydrochloride, 3-[p-(trans-4-aminomethylcyclohexylhydroxymethyl)phenyl]propionic acid hydrochloride] here?
A: Its Ulcer inhibiting ratio is 68.7%.

Q: What about the Clot lysis time (plasmin; [1]) of the same compound?
A: Its Clot lysis time is 546.7 s.

Q: And the Clot lysis time (plasmin; [2])?
A: The Clot lysis time was 411.7 s.

Q: What about the Recalcification time (thrombin; [3]) of the same compound?
A: Its Recalcification time is 80.7 s.

Q: What about the Recalcification time (thrombin; [4]) of the same compound?
A: Its Recalcification time is 104.0 s.

Q: With `NCCCCCC(O)c1ccc(CCC(=O)O)cc1` (centres unmarked) [(302), 3-[p-(6-amino-1-hydroxyhex-1-yl)phenyl]-propionic acid] as the compound, how does the Ulcer inhibiting ratio (serotonin ulcer; 100 mg/kg oral) read?
A: Its Ulcer inhibiting ratio is 68.1%.

Q: What about the Clot lysis time (plasmin; 10^-3 M, second series, control 556.7 ± 12.6) of the same compound?
A: The Clot lysis time was 736.7 s.

Q: And the Clot lysis time (plasmin; 10^-4 M, second series, control 556.7 ± 12.6)?
A: Its Clot lysis time is 521.7 s.

Q: What about the Recalcification time (thrombin; [3]) of the same compound?
A: Its Recalcification time is 82.7 s.

Q: `NCC1CCC(C(=O)Oc2ccc(CCC(=O)O)cc2)CC1` (centres unmarked) [drawing 52, reference compound] was tested. Which “Inhibition ratio (acidity)” value (gastric secretion; 200 mg/kg i.p.) did it give?
A: The value was 52.5%.

Q: And the “Inhibition ratio (amount of gastric juice)” value (gastric secretion; 200 mg/kg i.p.)?
A: Its value is 72.1%.

Q: And the “Amount of gastric juice” value (gastric secretion; 200 mg/kg i.p.)?
A: The value was 1.9 ± 0.6.

Q: What about the Acidity (gastric secretion; 200 mg/kg i.p.) of the same compound?
A: The Acidity was 51.8 ± 10.0 μeq./ml.

Q: And the “Inhibition ratio (acidity)” value (gastric secretion; 400 mg/kg i.p.)?
A: The value was 70.3%.

Q: And the “Inhibition ratio (amount of gastric juice)” value (gastric secretion; 400 mg/kg i.p.)?
A: Its value is 86.8%.

Q: And the “Amount of gastric juice” value (gastric secretion; 400 mg/kg i.p.)?
A: The value was 0.9 ± 0.2.

Q: And the Acidity (gastric secretion; 400 mg/kg i.p.)?
A: Its Acidity is 32.4 ± 2.4 μeq./ml.

Q: `NCC1CCC(C(=O)Oc2ccc(CCC(=O)O)cc2)CC1` (centres unmarked) [drawing 60, reference compound] was tested. Which Recalcification time (thrombin; 5 × 10^-5 M, second series, control 103.3 ± 7.6) did it give?
A: The Recalcification time was 144.0 ± 2.6 s.

Q: What about the Recalcification time (thrombin; 5 × 10^-6 M, second series, control 103.3 ± 7.6) of the same compound?
A: The Recalcification time was 114.7 ± 2.5 s.

Q: With `Cl.NCc1ccc(C(=O)c2ccc(CCC(=O)O)cc2)cc1` [(112) hydrochloride, 3-[p-(4-aminomethylbenzoyl)phenyl]propionic acid hydrochloride] as the compound, how does the Ulcer inhibiting ratio (serotonin ulcer; 200 mg/kg oral) read?
A: Its Ulcer inhibiting ratio is 95.6%.

Q: With `NCC1CCC(C(=O)Oc2ccc(CCC(=O)O)cc2)CC1` (centres unmarked) [drawing 47, reference compound] as the compound, how does the Ulcer inhibiting ratio (serotonin ulcer; 100 mg/kg oral) read?
A: Its Ulcer inhibiting ratio is 17.5%.

Q: And the Ulcer inhibiting ratio (serotonin ulcer; 300 mg/kg oral)?
A: Its Ulcer inhibiting ratio is 73.8%.

Q: With `NCC1CCC(C(=O)Oc2ccc(CCC(=O)O)cc2)CC1` (centres unmarked) [drawing 56, reference compound] as the compound, how does the Clot lysis time (plasmin; 10^-5 M, second series, control 556.7 ± 12.6) read?
A: Its Clot lysis time is 1398 ± 53.0 s.

Q: And the Clot lysis time (plasmin; 10^-6 M, second series, control 556.7 ± 12.6)?
A: Its Clot lysis time is 600.0 ± 37.7 s.

Q: How did the Recalcification time (thrombin; 5 × 10^-4 M, first series, […]) turn out when `NCC1CCC(C(=O)Oc2ccc(CCC(=O)O)cc2)CC1` (centres unmarked) [drawing 58, reference compound] was run?
A: Its Recalcification time is 122.7 ± 2.5 s.

Q: And the Recalcification time (thrombin; 5 × 10^-5 M, first series, […])?
A: Its Recalcification time is 115.3 ± 1.2 s.

Q: Which Ulcer inhibiting ratio (serotonin ulcer; 100 mg/kg intraperitoneal) does the source give for `Cl.NCCCCCC(=O)c1ccc(CCC(=O)O)cc1` [(102) hydrochloride, 3-[p-(ε-aminocaproyl)phenyl]propionic acid hydrochloride] here?
A: The Ulcer inhibiting ratio was 76.2%.

Q: What about the Clot lysis time (plasmin; [1]) of the same compound?
A: The Clot lysis time was 476.7 s.

Q: What about the Clot lysis time (plasmin; [2]) of the same compound?
A: Its Clot lysis time is 423.3 s.

Q: What about the Recalcification time (thrombin; [3]) of the same compound?
A: Its Recalcification time is 67.0 s.

Q: What about the Recalcification time (thrombin; [4]) of the same compound?
A: The Recalcification time was 98.3 s.

Q: For `NCC1CCC(C(=O)Oc2ccc(CCC(=O)O)cc2)CC1` (centres unmarked) [drawing 54, reference compound], which Clot lysis time (plasmin; [1]) is on record?
A: The Clot lysis time was over 1800 s.

Q: What about the Clot lysis time (plasmin; [2]) of the same compound?
A: Its Clot lysis time is over 1800 s.

Q: And the Clot lysis time (plasmin; 10^-5 M, first series, control 391.7 ± 16.1)?
A: The Clot lysis time was 1045.0 ± 13.2 s.

Q: What about the Clot lysis time (plasmin; 10^-6 M, first series, control 391.7 ± 16.1) of the same compound?
A: Its Clot lysis time is 441.7 ± 21.8 s.

— patent publication US4402975A, “Aminocarboxylic acids, amino alcohols, or the derivatives thereof, processes for production thereof, and pharmaceutical uses thereof” (Teijin Limited, priority 1980, dated 1983)
